Tests used:
[1] = biological target: T1, HiBiT-BRM fusion protein in stable HeLa cell line (Homo sapiens, UniProt P51531); experiment: HiBiT-BRM cell-based degradation assay (Nano-Glo HiBiT Lytic Detection, 24 h); design: DC50: scale not given here; details: HeLa HiBiT-BRM cells; for DC50: read-out: BRM HiBit Degradation IC50; for BRM HiBit Degradation Maximum (%): top dose 30 μM
T1 construct: expressed in transfected cells
Outline: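 Percent degradation was scaled between DMSO-treated cells and cells given 2 μM of a known BRM/BRG1 degrader. Readout was NanoBiT luminescence after lytic detection. HeLa cells stably expressing HiBiT-BRM were dosed for 24 h, 10 points, 3-fold steps from 30 μM final, in duplicate.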

[2] = biological target: T2, HiBit-BRG1 fusion protein in stable HeLa cell line expressing HiBit-BRG1 and LgBit (Homo sapiens, UniProt P51532); experiment: HiBiT-BRG1 cell-based degradation assay (Nano-Glo HiBiT, 24 h); details: HeLa HiBit-BRG1/LgBit cells; for DC50: read-out: BRMG1 HiBit Degradation IC50; for Dmax: top dose 30 μM, read-out: BRG1 HiBit Degradation Maximum (%)
T2 construct: expressed in transfected cells
T2 sequence (P51532 whole entry, the tested form may be a part): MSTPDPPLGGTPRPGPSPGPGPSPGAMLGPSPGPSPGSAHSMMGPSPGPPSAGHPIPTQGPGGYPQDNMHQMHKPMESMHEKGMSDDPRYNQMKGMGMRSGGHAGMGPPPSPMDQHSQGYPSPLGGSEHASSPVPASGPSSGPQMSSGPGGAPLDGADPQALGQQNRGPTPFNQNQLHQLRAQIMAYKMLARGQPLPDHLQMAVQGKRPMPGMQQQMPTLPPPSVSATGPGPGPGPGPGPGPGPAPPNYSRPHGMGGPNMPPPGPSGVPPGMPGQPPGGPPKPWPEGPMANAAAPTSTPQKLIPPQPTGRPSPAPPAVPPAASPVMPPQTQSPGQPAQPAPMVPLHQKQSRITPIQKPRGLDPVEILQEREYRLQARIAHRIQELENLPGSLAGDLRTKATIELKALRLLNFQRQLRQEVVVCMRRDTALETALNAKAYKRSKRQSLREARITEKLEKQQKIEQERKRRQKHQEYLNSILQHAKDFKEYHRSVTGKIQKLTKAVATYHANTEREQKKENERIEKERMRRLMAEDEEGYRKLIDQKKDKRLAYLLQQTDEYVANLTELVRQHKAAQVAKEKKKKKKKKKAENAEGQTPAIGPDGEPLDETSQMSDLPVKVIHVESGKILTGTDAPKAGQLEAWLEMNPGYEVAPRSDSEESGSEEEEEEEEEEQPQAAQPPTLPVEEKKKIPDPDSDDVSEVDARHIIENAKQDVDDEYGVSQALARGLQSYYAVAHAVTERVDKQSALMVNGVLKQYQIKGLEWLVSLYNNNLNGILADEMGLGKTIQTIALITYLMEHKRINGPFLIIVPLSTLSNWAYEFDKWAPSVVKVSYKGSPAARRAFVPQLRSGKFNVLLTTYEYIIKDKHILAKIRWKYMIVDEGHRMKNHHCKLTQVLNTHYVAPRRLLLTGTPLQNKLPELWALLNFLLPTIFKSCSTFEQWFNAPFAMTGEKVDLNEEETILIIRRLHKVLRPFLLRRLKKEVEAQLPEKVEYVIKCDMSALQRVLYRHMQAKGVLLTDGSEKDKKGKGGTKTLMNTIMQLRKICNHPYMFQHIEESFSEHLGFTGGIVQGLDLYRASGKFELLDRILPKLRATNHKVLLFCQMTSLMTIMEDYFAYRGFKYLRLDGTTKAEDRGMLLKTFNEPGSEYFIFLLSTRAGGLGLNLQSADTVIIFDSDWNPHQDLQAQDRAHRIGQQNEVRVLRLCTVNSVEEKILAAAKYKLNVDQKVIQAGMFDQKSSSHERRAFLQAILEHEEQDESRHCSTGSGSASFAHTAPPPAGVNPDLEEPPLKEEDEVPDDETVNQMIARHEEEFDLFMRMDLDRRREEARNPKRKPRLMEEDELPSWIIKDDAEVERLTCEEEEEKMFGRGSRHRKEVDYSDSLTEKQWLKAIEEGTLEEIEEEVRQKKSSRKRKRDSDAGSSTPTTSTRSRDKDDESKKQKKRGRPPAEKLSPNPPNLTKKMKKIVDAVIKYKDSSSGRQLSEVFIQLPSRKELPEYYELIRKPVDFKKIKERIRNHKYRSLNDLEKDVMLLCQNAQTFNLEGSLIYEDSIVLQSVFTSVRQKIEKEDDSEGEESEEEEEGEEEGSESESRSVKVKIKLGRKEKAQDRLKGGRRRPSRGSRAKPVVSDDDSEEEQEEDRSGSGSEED
Outline: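 Degradation calculated from NanoBiT luminescence relative to DMSO-treated cells (high) and cells given 2 μM known BRM/BRG1 degrader (low). HeLa cells stably expressing HiBiT-BRG1 plus LgBiT were exposed to compound for 24 h before lytic HiBiT detection.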

T1 sequence (P51531 whole entry, the tested form may be a part): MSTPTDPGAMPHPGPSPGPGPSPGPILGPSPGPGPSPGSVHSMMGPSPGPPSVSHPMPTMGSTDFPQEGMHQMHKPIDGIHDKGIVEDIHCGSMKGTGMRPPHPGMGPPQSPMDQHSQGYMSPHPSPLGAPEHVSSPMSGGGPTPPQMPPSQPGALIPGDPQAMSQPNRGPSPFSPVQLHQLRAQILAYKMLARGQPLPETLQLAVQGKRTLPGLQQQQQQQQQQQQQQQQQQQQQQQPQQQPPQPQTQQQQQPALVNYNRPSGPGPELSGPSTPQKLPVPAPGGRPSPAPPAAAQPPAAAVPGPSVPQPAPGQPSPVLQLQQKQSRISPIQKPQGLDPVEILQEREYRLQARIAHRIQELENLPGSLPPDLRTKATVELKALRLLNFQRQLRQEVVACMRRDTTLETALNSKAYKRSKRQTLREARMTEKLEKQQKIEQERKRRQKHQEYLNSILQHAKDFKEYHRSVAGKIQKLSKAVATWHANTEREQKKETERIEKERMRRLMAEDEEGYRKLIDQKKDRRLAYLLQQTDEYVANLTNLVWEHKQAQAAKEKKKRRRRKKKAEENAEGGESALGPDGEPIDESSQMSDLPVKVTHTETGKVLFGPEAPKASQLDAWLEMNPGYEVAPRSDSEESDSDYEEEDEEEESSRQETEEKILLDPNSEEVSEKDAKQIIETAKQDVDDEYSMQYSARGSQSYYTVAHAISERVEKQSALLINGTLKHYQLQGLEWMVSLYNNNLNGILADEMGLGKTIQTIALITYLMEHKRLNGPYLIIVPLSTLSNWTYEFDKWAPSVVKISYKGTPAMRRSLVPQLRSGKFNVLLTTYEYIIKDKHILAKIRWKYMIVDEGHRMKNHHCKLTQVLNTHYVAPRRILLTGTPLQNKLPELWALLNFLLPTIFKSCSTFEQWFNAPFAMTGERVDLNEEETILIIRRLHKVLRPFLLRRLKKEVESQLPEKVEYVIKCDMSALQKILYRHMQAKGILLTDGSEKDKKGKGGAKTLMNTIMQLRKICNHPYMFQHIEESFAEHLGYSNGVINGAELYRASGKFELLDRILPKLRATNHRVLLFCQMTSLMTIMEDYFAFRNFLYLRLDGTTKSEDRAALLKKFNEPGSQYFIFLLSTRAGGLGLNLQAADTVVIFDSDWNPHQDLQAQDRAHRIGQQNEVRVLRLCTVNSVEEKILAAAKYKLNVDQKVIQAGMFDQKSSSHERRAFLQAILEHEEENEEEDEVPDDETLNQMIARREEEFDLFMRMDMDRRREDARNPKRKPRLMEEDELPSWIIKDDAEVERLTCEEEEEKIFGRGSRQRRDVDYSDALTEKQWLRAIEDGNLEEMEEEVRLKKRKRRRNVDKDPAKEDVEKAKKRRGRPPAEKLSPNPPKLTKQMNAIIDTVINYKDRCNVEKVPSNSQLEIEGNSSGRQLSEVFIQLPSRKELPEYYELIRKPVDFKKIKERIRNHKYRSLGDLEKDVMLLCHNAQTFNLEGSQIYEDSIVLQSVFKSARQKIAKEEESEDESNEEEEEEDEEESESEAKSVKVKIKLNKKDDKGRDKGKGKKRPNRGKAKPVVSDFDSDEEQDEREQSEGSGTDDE

Row | SMILES | DC50 [1] [nM] | DC50 [2] [nM] | Dmax [2] [%] | BRM HiBit Degradation Maximum (%) [1]
1 | Cc1ncsc1-c1ccc([C@H](C)NC(=O)[C@@H]2C[C@@H](O)CN2C(=O)C(C(C)C)n2cc(N3CCC4(CCCN4c4ccc5cc(-c6ccccc6O)nnc5c4)C3)nn2)cc1 (stereo partly drawn) [Compound 262, (2S,4R)-4-hydroxy-1-(2-(4-(1-(3-(2-hydroxyphenyl)cinnolin-7-yl)-1,7-diazaspiro[4.4]nonan-7-yl)-1H-1,2,3-triazol-1-yl)-3-methylbutanoyl)-N-((S)-1-(4-(4-methylthiazol-5-yl)phenyl)ethyl)pyrrolidine-2-carboxamide] | > 100 | > 100 | > 50 | A (“A” indicates maximum degradation ≥75%)
2 | Cc1ncsc1-c1ccc([C@H](C)NC(=O)[C@@H]2C[C@@H](O)CN2C(=O)C(C(C)C)n2cc(N3CCC34CN(c3ccc5cc(-c6ccccc6O)nnc5c3)C4)nn2)cc1 (stereo partly drawn) [Compound 265, (2S,4R)-4-hydroxy-1-(2-(4-(6-(3-(2-hydroxyphenyl)cinnolin-7-yl)-1,6-diazaspiro[3.3]heptan-1-yl)-1H-1,2,3-triazol-1-yl)-3-methylbutanoyl)-N-((S)-1-(4-(4-methylthiazol-5-yl)phenyl)ethyl)pyrrolidine-2-carboxamide] | > 100 | > 100 | > 75 | A (“A” indicates maximum degradation ≥75%)
3 | Cc1ncsc1-c1ccc([C@H](C)NC(=O)[C@@H]2C[C@@H](O)CN2C(=O)[C@H](C(C)C)n2cnc(N3CC4(CN(c5ccc6cc(-c7ccccc7O)nnc6c5)C4)C3)n2)cc1 [Compound 267, (2S,4R)-4-hydroxy-1-[(2S)-2-(3-{6-[3-(2-hydroxyphenyl)cinnolin-7-yl]-2,6-diazaspiro[3.3]heptan-2-yl}-1,2,4-triazol-1-yl)-3-methylbutanoyl]-N-[(1S)-1-[4-(4-methyl-1,3-thiazol-5-yl)phenyl]ethyl]pyrrolidine-2-carboxamide] | > 100 |  | < 50 | B (“B” indicates maximum degradation ≥50%)

The next lines start with results.

Row | DC50 [1] [nM] | DC50 [2] [nM] | Dmax [2] [%] | SMILES | BRM HiBit Degradation Maximum (%) [1]
4 | > 10 | > 10 | > 75 | Cc1ncsc1-c1ccc([C@H](C)NC(=O)[C@@H]2C[C@@H](O)CN2C(=O)C(C(C)C)n2cc(N3CCC4C(C3)CN4c3ccc4cc(-c5ccccc5O)nnc4c3)nn2)cc1 (stereo partly drawn) [Compound 263, (2S,4R)-4-hydroxy-1-(2-(4-(7-(3-(2-hydroxyphenyl)cinnolin-7-yl)-3,7-diazabicyclo[4.2.0]octan-3-yl)-1H-1,2,3-triazol-1-yl)-3-methylbutanoyl)-N-((S)-1-(4-(4-methylthiazol-5-yl)phenyl)ethyl)pyrrolidine-2-carboxamide] | A (“A” indicates maximum degradation ≥75%)
5 | > 10 |  | < 50 | Cc1ncsc1-c1ccc([C@H](C)NC(=O)[C@@H]2C[C@@H](O)CN2C(=O)C(C(C)C)n2cc(N3CCC4(CCN4c4ccc5cc(-c6ccccc6O)nnc5c4)C3)nn2)cc1 (stereo partly drawn) [Compound 264, (2S,4R)-4-hydroxy-1-(2-(4-(1-(3-(2-hydroxyphenyl)cinnolin-7-yl)-1,6-diazaspiro[3.4]octan-6-yl)-1H-1,2,3-triazol-1-yl)-3-methylbutanoyl)-N-((S)-1-(4-(4-methylthiazol-5-yl)phenyl)ethyl)pyrrolidine-2-carboxamide] | A (“A” indicates maximum degradation ≥75%)
6 | < 10 | < 10 | > 75 | Cc1ncsc1-c1ccc([C@H](C)NC(=O)[C@@H]2C[C@@H](O)CN2C(=O)C(C(C)C)n2cc(N3CCC(C4CCN(c5ccc6cc(-c7ccccc7O)nnc6c5)CC4)C3)nn2)cc1 (stereo partly drawn) [Compound 266, (2S,4R)-4-hydroxy-1-(2-(4-(3-(1-(3-(2-hydroxyphenyl)cinnolin-7-yl)piperidin-4-yl)pyrrolidin-1-yl)-1H-1,2,3-triazol-1-yl)-3-methylbutanoyl)-N-((S)-1-(4-(4-methylthiazol-5-yl)phenyl)ethyl)pyrrolidine-2-carboxamide] | A (“A” indicates maximum degradation ≥75%)

— patent publication US20260193264A1, “BENZOYPARAZINE PYRAZINES AND THEIR USES” (FOGHORN THERAPEUTICS INC., priority 2022, published 2026)
